Literature values in patent US20230357868A1 (priority 2021, published 2023).

Tests used:
[1] = system: potato spindle tuber viroid (PSTVd); settings: LAMP reaction
[2] = LAMP visualization reagent

CCCN(CCCN(C)C)c1cc(/C=C2/Sc3ccccc3N2C)c2ccccc2[n+]1-c1ccccc1 [SYBR Green I]
Effect on amplification [1]: Not inhibiting when used 0.5-1x
Toxicity [2]: Mutation enhancer

O=P([O-])([O-])OP(=O)([O-])[O-].[Mg+2].[Mg+2] [Mg-pyrophosphate (Mg-PPi)]
Effect on amplification [1]: None

O=S(=O)([O-])c1ccc2c(N=Nc3c(O)cc(S(=O)(=O)[O-])c4ccccc34)c(O)c(S(=O)(=O)[O-])cc2c1.[Na+].[Na+].[Na+] [Hydroxynaphthol blue (HNB)]
Effect on amplification [1]: None
Toxicity [2]: May cause eye irritation
